Measurements taken from publication PMC11345828 (Journal of Medicinal Chemistry, 2024).
Several values for one entry are separate records, joined by “and”; a condition that tells them apart may be missing. Equal entries are not always repeated. Marks after values point to notes of the source that are not given here.

Columns and labels:
K562 cell line = experiment: cells; conditions: Homo sapiens, K562, read-out: K562 GI50
Procedure: (§1) NCI-H1048 were cultured in custom medium prepared by PanBioTech containing DMEM/F12 + 5% fetal calf serum, 0.005 mg/mL insulin, 0.01 mg/mL transferrin, 30 nM sodium selenite, 10 nM hydrocortisone, 10 nM β-estradiol and […] 2 mM L-glutamine.
(§2) Suspension cells were plated immediately before compound addition. Adherent cell lines were incubated overnight at 37 °C in a tissue culture incubator prior to compound addition. Compounds were added in triplicates using an HP D300e Digital Dispenser (Hewlett-Packard) or manually at the concentrations indicated and total volumes were normalized using dimethyl sulfoxide (DMSO) backfill, with final DMSO concentration of 0.5%. Control wells were treated with DMSO only.

NCI-H929 cell line = experiment: cells; conditions: Homo sapiens, NCI-H929, read-out: NCI-H929 GI50
Procedure: as §1, §2

Mouse IV PK = conditions: for CL / AUC/Dose / improvement in the mouse IV clearance from (M)-18: mouse IV; for AUC/Dose: dose normalized; for clearance: mouse, plasma, iv; for improvement in the mouse IV clearance from (M)-18: relative to (M)-18
Procedure: (§3) For PK analysis, mice and dogs were administered intravenously with compound formulated either in 10% ethanol and 10% Cremophor EL for mice or in 50% ethanol and 50% PEG500 for dogs. Plasma samples were obtained at predefined time points and compound concentrations in plasma were measured by quantitative HPLC-MS/MS using an internal standard. Calibration and quality control samples were prepared using blank plasma from untreated animals. Samples were precipitated with acetonitrile and injected into a HPLC system (Agilent 1200). […] The HPLC was interfaced by ESI operated in positive ionization mode to a triple quadrupole mass spectrometer (6500+ Triple Quad System, SCIEX) operated in multiple reaction monitoring mode. Chromatograms were analyzed with Analyst (SCIEX) and pharmacokinetic parameters were calculated by noncompartmental analysis using proprietary software.

Procedure for Dog IV PK: as §3

| SMILES | GI50 (K562 cell line) | GI50 (NCI-H929 cell line) | CL (Mouse IV PK; dosed at 25 mg/kg) | clearance (Mouse IV PK; 25 mg/kg) | AUC/Dose (Mouse IV PK; dosed at 20 mg/kg) | clearance (Mouse IV PK; 20 mg/kg) | also measured |
| --- | --- | --- | --- | --- | --- | --- | --- |
| COCCOc1cc(N2C[C@@H](C)n3c(c(CCCOc4cc(C)c(Cl)c(C)c4)c4ccc(Cl)c(-c5c(C)nc(C)nc5C)c43)C2=O)c2c(cc(C(=O)O)n2C)c1OC [Compound 25, (R)-7-(7-Chloro-10-(3-(4-chloro-3,5-dimethylphenoxy)propyl)-4-methyl-1-oxo-6-(2,4,6-trimethylpyrimidin-5-yl)-3,4-dihydropyrazino[1,2-a]indol-2(1H)-yl)-4-methoxy-5-(2-methoxyethoxy)-1-methyl-1H-indole-2-carboxylic Acid] | > 12000 nM | 22 ± 10 nM | 51 mL/min/kg | 51 mL/min/kg | – | – | AUC/Dose (Dog IV PK; dosed at 0.25 mg/kg): 1324 nM*h/mpk; CL (Dog IV PK; dosed at 0.25 mg/kg): 16 mL/min/kg; CL (% hep blood flow) (Dog IV PK; dosed at 0.25 mg/kg): 50 % hep blood flow; AUC/Dose (Mouse IV PK; dosed at 25 mg/kg): 334^c nM*h/mpk |
| COc1cc(N2C[C@@H](C)n3c(c(CCCOc4cc(C)c(Cl)c(C)c4)c4ccc(Cl)c(-c5c(C)nc(C)nc5C)c43)C2=O)c2c(cc(C(=O)O)n2C)c1OC [Compound 20, (R)-7-(7-Chloro-10-(3-(4-chloro-3,5-dimethylphenoxy)propyl)-4-methyl-1-oxo-6-(2,4,6-trimethylpyrimidin-5-yl)-3,4-dihydropyrazino[1,2-a]indol-2(1H)-yl)-4,5-dimethoxy-1-methyl-1H-indole-2-carboxylic Acid] | 6800 ± 3300 nM | 33 ± 14 nM | 45 mL/min/kg | 45 mL/min/kg | – | – | AUC/Dose (Mouse IV PK; dosed at 25 mg/kg, 25 mg/kg): 385 nM*h/mpk and 385^c nM*h/mpk; improvement in the mouse IV clearance from (M)-18 (Mouse IV PK): 2 fold |
| COc1c(OC[C@H]2CCCO2)cc(N2C[C@@H](C)n3c(c(CCCOc4cc(C)c(Cl)c(C)c4)c4ccc(Cl)c(-c5c(C)nc(C)nc5C)c43)C2=O)c2c1cc(C(=O)O)n2C [Compound 28, 7-((R)-7-Chloro-10-(3-(4-chloro-3,5-dimethylphenoxy)propyl)-6-(2,4,6-trimethylpyrimidin-5-yl)-4-methyl-1-oxo-3,4-dihydropyrazino[1,2-a]indol-2(1H)-yl)-4-methoxy-1-methyl-5-(((R)-tetrahydrofuran-2-yl)methoxy)-1H-indole-2-carboxylic Acid] | – | – | – | 8.4 mL/min/kg | 2510^d nM*h/mpk | 8.4 mL/min/kg | – |
| COc1c(O[C@H]2CCOC2)cc(N2C[C@@H](C)n3c(c(CCCOc4cc(C)c(Cl)c(C)c4)c4ccc(Cl)c(-c5c(C)nc(C)nc5C)c43)C2=O)c2c1cc(C(=O)O)n2C [Compound 29, 7-((R)-7-Chloro-10-(3-(4-chloro-3,5-dimethylphenoxy)propyl)-4-methyl-1-oxo-6-(2,4,6-trimethylpyrimidin-5-yl)-3,4-dihydropyrazino[1,2-a]indol-2(1H)-yl)-4-methoxy-1-methyl-5-(((S)-tetrahydrofuran-3-yl)oxy)-1H-indole-2-carboxylic Acid] | – | – | – | 19 mL/min/kg | – | – | AUC/Dose (Dog IV PK; dosed at 0.9 mg/kg): 1808 nM*h/mpk; CL (Dog IV PK; dosed at 0.9 mg/kg): 12 mL/min/kg; CL (% hep blood flow) (Dog IV PK; dosed at 0.9 mg/kg): 38 % hep blood flow; AUC/Dose (Mouse IV PK; dosed at 5 mg/kg): 1858^e nM*h/mpk; clearance (Mouse IV PK; 5 mg/kg): 19 mL/min/kg |
| COc1cc(N2C[C@@H](C)n3c(c(CCCOc4cc(C)c(Cl)c(C)c4)c4ccc(Cl)c(-c5c(C)ncnc5C)c43)C2=O)c2c(cc(C(=O)O)n2C)c1OC [Compound 19, (R)-7-(7-Chloro-10-(3-(4-chloro-3,5-dimethylphenoxy)propyl)-6-(4,6-dimethylpyrimidin-5-yl)-4-methyl-1-oxo-3,4-dihydropyrazino[1,2-a]indol-2(1H)-yl)-4,5-dimethoxy-1-methyl-1H-indole-2-carboxylic Acid] | 7000 nM | 32 ± 14 nM | 43 mL/min/kg | 43 mL/min/kg | – | – | AUC/Dose (Mouse IV PK; dosed at 25 mg/kg, 25 mg/kg): 499 nM*h/mpk and 499^c nM*h/mpk; improvement in the mouse IV clearance from (M)-18 (Mouse IV PK): 2 fold |
| COc1c(OC[C@H]2CCCO2)cc(N2C[C@@H](C)n3c(c(CCCOc4cc(C)c(Cl)c(C)c4)c4ccc(Cl)c(-c5c(C)ncnc5C)c43)C2=O)c2c1cc(C(=O)O)n2C [Compound 24, 7-((R)-7-Chloro-10-(3-(4-chloro-3,5-dimethylphenoxy)propyl)-6-(4,6-dimethylpyrimidin-5-yl)-4-methyl-1-oxo-3,4-dihydropyrazino[1,2-a]indol-2(1H)-yl)-4-methoxy-1-methyl-5-(((R)-tetrahydrofuran-2-yl)methoxy)-1H-indole-2-carboxylic Acid] | – | – | 15 mL/min/kg | 15 mL/min/kg | – | – | AUC/Dose (Mouse IV PK; dosed at 25 mg/kg): 1476^c nM*h/mpk |
| COCCOc1cc(N2C[C@@H](C)n3c(c(CCCOc4cc(C)c(Cl)c(C)c4)c4ccc(Cl)c(-c5c(C)ncnc5C)c43)C2=O)c2c(cc(C(=O)O)n2C)c1OC [Compound 21, (R)-7-(7-Chloro-10-(3-(4-chloro-3,5-dimethylphenoxy)propyl)-6-(4,6-dimethylpyrimidin-5-yl)-4-methyl-1-oxo-3,4-dihydropyrazino[1,2-a]indol-2(1H)-yl)-4-methoxy-5-(2-methoxyethoxy)-1-methyl-1H-indole-2-carboxylic Acid] | > 12000 nM | 30 ± 13 nM | 58 mL/min/kg | 58 mL/min/kg | – | – | AUC/Dose (Mouse IV PK; dosed at 25 mg/kg): 290^c nM*h/mpk |
| COc1c(O[C@@H]2CCOC2)cc(N2C[C@@H](C)n3c(c(CCCOc4cc(C)c(Cl)c(C)c4)c4ccc(Cl)c(-c5c(C)nc(C)nc5C)c43)C2=O)c2c1cc(C(=O)O)n2C [Compound 30, 7-((R)-7-Chloro-10-(3-(4-chloro-3,5-dimethylphenoxy)propyl)-4-methyl-1-oxo-6-(2,4,6-trimethylpyrimidin-5-yl)-3,4-dihydropyrazino[1,2-a]indol-2(1H)-yl)-4-methoxy-1-methyl-5-(((R)-tetrahydrofuran-3-yl)oxy)-1H-indole-2-carboxylic Acid] | – | – | – | 13 mL/min/kg | 1425^d nM*h/mpk | 13 mL/min/kg | – |
| COc1cc(N2C[C@@H](C)n3c(c(CCCOc4cc(C)c(Cl)c(C)c4)c4ccc(Cl)c(-c5c(C)nn(C)c5C)c43)C2=O)c2c(cc(C(=O)O)n2C)c1OC [Compound 18, (M,R)-7-(7-Chloro-10-(3-(4-chloro-3,5-dimethylphenoxy)propyl)-4-methyl-1-oxo-6-(1,3,5-trimethyl-1H-pyrazol-4-yl)-3,4-dihydropyrazino[1,2-a]indol-2(1H)-yl)-4,5-dimethoxy-1-methyl-1H-indole-2-carboxylic Acid] | – | – | – | 70 mL/min/kg | – | – | AUC/Dose (Mouse IV PK; dosed at 25 mg/kg): 252 nM*h/mpk |
| CCOc1c(O[C@H]2CCOC2)cc(N2C[C@@H](C)n3c(c(CCCOc4cc(C)c(Cl)c(C)c4)c4ccc(Cl)c(-c5c(C)nc(C)nc5C)c43)C2=O)c2c1cc(C(=O)O)n2C [Compound 31, 7-((R)-7-Chloro-10-(3-(4-chloro-3,5-dimethylphenoxy)propyl)-4-methyl-1-oxo-6-(2,4,6-trimethylpyrimidin-5-yl)-3,4-dihydropyrazino[1,2-a]indol-2(1H)-yl)-4-ethoxy-1-methyl-5-(((S)-tetrahydrofuran-3-yl)oxy)-1H-indole-2-carboxylic Acid] | – | – | – | 8.7 mL/min/kg | 2465^d nM*h/mpk | 8.7 mL/min/kg | – |
| Cc1cc(OCCCc2c3n(c4c(-c5c(C)nn(C)c5C)c(Cl)ccc24)[C@H](C)CN(c2cccc4cc(C(=O)O)n(C)c24)C3=O)cc(C)c1Cl [Compound 10, (R)-7-(7-Chloro-10-(3-(4-chloro-3,5-dimethylphenoxy)propyl)-4-methyl-1-oxo-6-(1,3,5-trimethyl-1H-pyrazol-4-yl)-3,4-dihydropyrazino[1,2-a]indol-2(1H)-yl)-1-methyl-1H-indole-2-carboxylic Acid] | > 12500 nM | 187 ± 78 nM | – | – | – | – | – |
| COc1c(OCC2CCOCC2)cc(N2C[C@@H](C)n3c(c(CCCOc4cc(C)c(Cl)c(C)c4)c4ccc(Cl)c(-c5c(C)ncnc5C)c43)C2=O)c2c1cc(C(=O)O)n2C [Compound 22, (R)-7-(7-Chloro-10-(3-(4-chloro-3,5-dimethylphenoxy)propyl)-6-(4,6-dimethylpyrimidin-5-yl)-4-methyl-1-oxo-3,4-dihydropyrazino[1,2-a]indol-2(1H)-yl)-4-methoxy-1-methyl-5-((tetrahydro-2H-pyran-4-yl)methoxy)-1H-indole-2-carboxylic Acid] | – | – | – | 7 mL/min/kg | 2830^d nM*h/mpk | 7 mL/min/kg | – |
| COc1c(OC[C@@H]2CCCO2)cc(N2C[C@@H](C)n3c(c(CCCOc4cc(C)c(Cl)c(C)c4)c4ccc(Cl)c(-c5c(C)nc(C)nc5C)c43)C2=O)c2c1cc(C(=O)O)n2C [Compound 27, 7-((R)-7-Chloro-10-(3-(4-chloro-3,5-dimethylphenoxy)propyl)-6-(2,4,6-trimethylpyrimidin-5-yl)-4-methyl-1-oxo-3,4-dihydropyrazino[1,2-a]indol-2(1H)-yl)-4-methoxy-1-methyl-5-(((S)-tetrahydrofuran-2-yl)methoxy)-1H-indole-2-carboxylic Acid] | – | – | – | 8.9 mL/min/kg | 2190^d nM*h/mpk | 8.9 mL/min/kg | AUC/Dose (Dog IV PK; dosed at 0.9 mg/kg): 2100 nM*h/mpk; CL (Dog IV PK; dosed at 0.9 mg/kg): 8.9 mL/min/kg; CL (% hep blood flow) (Dog IV PK; dosed at 0.9 mg/kg): 29 % hep blood flow |
| CCOc1c(OCC2CCOCC2)cc(N2C[C@@H](C)n3c(c(CCCOc4cc(C)c(Cl)c(C)c4)c4ccc(Cl)c(-c5c(C)nc(C)nc5C)c43)C2=O)c2c1cc(C(=O)O)n2C [Compound 32, (R)-7-(7-Chloro-10-(3-(4-chloro-3,5-dimethylphenoxy)propyl)-4-methyl-1-oxo-6-(2,4,6-trimethylpyrimidin-5-yl)-3,4-dihydropyrazino[1,2-a]indol-2(1H)-yl)-4-ethoxy-1-methyl-5-((tetrahydro-2H-pyran-4-yl)methoxy)-1H-indole-2-carboxylic Acid] | – | – | – | 3.7 mL/min/kg | 4930^d nM*h/mpk | 3.7 mL/min/kg | – |
